In this assay the test system is MC3T3-E1 cells. In words: Alizarin Red S (ARS) extracellular mineralization assay, calcium deposits. The assay is classed as cell-based, murine. The conditions noted are these: 12 days in differentiation medium, 1 μM vitamin K2 and/or 15 μg/ml bovine milk exosomes. The procedure: Alizarin Red S (ARS) assay is an anthraquinone dye used to visualize and evaluate extracellular calcium deposits in cell culture. In embodiments of the invention, mineralization activity of differentiated osteoblasts are evaluated through ARS assay. To begin the assay, MC3T3-E1 pre-osteoblast cells were grown in MEM (minimum essential medium) culture medium supplemented with 10% v/v FBS (fetal bovine serum), […], 100 units/ml penicillin and 0.1 mg/ml streptomycin in a 5% CO2 and an atmosphere with 95% humidity. For osteogenic differentiation, these pre-osteoblast cells were seeded in 24-well plates at a density of 3×10^4 cells/well in complete medium for 1 day. The medium was then replaced by MEM containing 10% v/v FBS, […], 100 units/ml penicillin, 0.1 mg/ml streptomycin, […], and 50 μg/ml L-ascorbic acid. Specifically, three groups of MC3T3-E1 pre-osteoblast cells were treated. Group 1 was treated with 1 μM vitamin K2. Group 2 was treated with 15 μg/ml bovine milk exosomes. Group 3 was treated with a combination of 1 μM vitamin K2 and 15 μg/ml bovine milk exosomes. Group 4 was included as an untreated control group. In addition to analyzing Runx2 and LC3 molecular markers in Example 2, cell Groups 1-3 as described in Example 2 were treated in the presence of a differentiation medium for 12 days. […]

Here are results for one molecule from patent US20250319133A1, “METHODS FOR IMPROVING BONE HEALTH WITH BOVINE MILK EXOSOME-ENRICHED PRODUCTS AND VITAMIN K2” (ABBOTT LABORATORIES, priority 2022, published 2025).

With `CC(C)=CCC/C(C)=C/CC/C(C)=C/CC/C(C)=C/CC1=C(C)C(=O)c2ccccc2C1=O` [vitamin K2], the “calcium deposits (extracellular matrix mineralization), ARS micrographs” value is given as “abundant calcium deposits”.
